The results in this text go back to patent US20200078408A1, “GENE THERAPY” (Ospedale San Raffaele S.r.l., priority 2017, published 2020).

The structures appear in SMILES notation.

One data set concerns B-ALL. The experiment in a line: B-ALL challenge of mice reconstituted with Tie2-vector transduced HSPCs (Example 7). The format is in vivo, mouse. Particulars: FIG. 31A. The source says: We employed a transplantable model of B-acute lymphoblastic leukaemia (B-ALL) closely mimicking human Philadelphia-like B-ALL (Nucera, S. et al. (2016) Cancer Cell 29: 905-921), which readily induces a protumoral, immunosuppressive microenvironment characterised, for example, by the appearance of myeloid-derived suppressor cells, downregulation of MHC class II genes and upregulation of IL10 and PD1.
Eight weeks post transplant, upon reconstitution of the peripheral blood, animals received the B-ALL that is then followed by frequent blood collection. […]
We then combined the contemporaneous delivery of several immunostimulatory cytokines into the leukaemia microenvironment using the Tie2 vector backbone equipped with different transgene cargo. […] Vector copy number of the single vectors measured by specific quantitative PCR assays was rather low ranging from 0.1 to 0.3 in the reconstituted mice. […]
Furthermore, we evaluated the potential synergy of our gene therapy-based delivery of IFNy with other immunotherapeutic strategies including checkpoint inhibitors anti-CTLA-4 and anti-LAG-3 and the inhibitor of the IDO enzyme, 1-Methyl-Tryptophan (1-MT). […] Vector copy number of the single vectors measured by specific quantitative PCR assays was 0,72 for the Tig126/130a and 0,84 for the controls in the reconstituted mice. […]

For data set [1], the system named is macrophages, myeloid-derived suppressor cells, CD8+ T cells. Put plainly: tumour microenvironment readouts at sacrifice in the B-ALL model (Example 7). The format is in vivo, mouse. Particulars: combined with gene therapy-based delivery of IFNγ (Tig126/130a).

Regarding `Cn1cc(CC(N)C(=O)O)c2ccccc21` (stereo not shown) [1-MT, 1-Methyltryptophan], in the data set with B-ALL (combined with gene therapy-based delivery of IFNγ (Tig126/130a)), the disease progression entry is “reduction of the disease progression”. In the data set with B-ALL (monotherapy), the B-ALL progression entry is listed as “no beneficial effect”. Besides, the “MHC class II expression on splenic and bone marrow macrophages” value in data set [1] (FIG. 31) was “significant increase”. The “cytotoxic CD8+ T cells in the spleen” value in data set [1] (FIG. 31D) is given as “increase”.
